Measured values published in ChEMBL document CHEMBL1201862, “PubChem BioAssay data set” (2004).
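Cultured in 96-well plates, cells were exposed to test compound for 48 hours across five concentrations. Here, GI50 denotes the concentration required for 50% inhibition of growth.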 Calls of active or inactive are those of the source. Rule as the data show it: active = GI50 up to about 1.1 µM and inactive = higher.

Key:
Assay in all cases: NCI anticancer screen, dose series, 48 h
786-0 = system: 786-0
A498 = system: A498
A549 = system: A549
ACHN = system: ACHN
BT-549 = system: BT-549
CAKI-1 = system: CAKI-1
COLO 205 = system: COLO 205
DU-145 = system: DU-145
EKVX = system: EKVX
HCC 2998 = system: HCC 2998
HCT-116 = system: HCT-116
HCT-15 = system: HCT-15
HL-60 = system: HL-60
HOP-62 = system: HOP-62
HOP-92 = system: HOP-92
HT-29 = system: HT-29
Hs-578T = system: Hs-578T
IGROV-1 = system: IGROV-1
K562 = system: K562
KM12 = system: KM12
LOX IMVI = system: LOX IMVI
M14 = system: M14
MCF7 = system: MCF7
MDA-MB-231 = system: MDA-MB-231
MDA-MB-435 = system: MDA-MB-435
MDA-N = system: MDA-N
MOLT-4 = system: MOLT-4
NCI-H226 = system: NCI-H226
NCI-H460 = system: NCI-H460
NCI-H522 = system: NCI-H522
NCI/ADR-RES = system: NCI/ADR-RES
OVCAR-3 = system: OVCAR-3
OVCAR-4 = system: OVCAR-4
OVCAR-5 = system: OVCAR-5
OVCAR-8 = system: OVCAR-8
PC-3 = system: PC-3
RPMI-8226 = system: RPMI-8226
SF-268 = system: SF-268
SF-539 = system: SF-539
SK-MEL-28 = system: SK-MEL-28
SK-MEL-2 = system: SK-MEL-2
SK-MEL-5 = system: SK-MEL-5
SK-OV-3 = system: SK-OV-3
SN12C = system: SN12C
SNB-19 = system: SNB-19
SNB-75 = system: SNB-75
SR = system: SR
SW-620 = system: SW-620
T47D = system: T47D
TK-10 = system: TK-10
U-251 = system: U-251
UACC-257 = system: UACC-257
UACC-62 = system: UACC-62
UO-31 = system: UO-31
CCRF-CEM = system: CCRF-CEM
Malme-3M = system: Malme-3M
NCI-H23 = system: NCI-H23
RXF 393 = system: RXF 393
SF-295 = system: SF-295

## CC1=C2c3c(C)ccc4ccc(C)c(c34)C2(O)C(C)C1=O (stereo not drawn)
786-0
  GI50: 51.2 µM (inactive)
A498
  GI50: > 100 µM (inactive)
A549
  GI50: 40.3 µM (inactive)
ACHN
  GI50: 73.6 µM (inactive)
BT-549
  GI50: 21 µM (inactive)
CAKI-1
  GI50: 52.1 µM (inactive)
COLO 205
  GI50: 28.8 µM (inactive)
DU-145
  GI50: > 100 µM (inactive)
EKVX
  GI50: 70.8 µM (inactive)
HCC 2998
  GI50: > 100 µM (inactive)
HCT-116
  GI50: 43.8 µM (inactive)
HCT-15
  GI50: 42.8 µM
HL-60
  GI50: 28.2 µM (inactive)
HOP-62
  GI50: 79.1 µM (inactive)
HOP-92
  GI50: 44.5 µM (inactive)
HT-29
  GI50: > 100 µM (inactive)
Hs-578T
  GI50: 35.1 µM (inactive)
IGROV-1
  GI50: 49.2 µM (inactive)
K562
  GI50: 49.5 µM (inactive)
KM12
  GI50: 41.3 µM (inactive)
LOX IMVI
  GI50: 45.4 µM (inactive)
M14
  GI50: 62.2 µM (inactive)
MCF7
  GI50: 68.5 µM (inactive)
MDA-MB-231
  GI50: 89.1 µM (inactive)
MDA-MB-435
  GI50: 52.1 µM (inactive)
MDA-N
  GI50: 54.1 µM (inactive)
MOLT-4
  GI50: 25 µM (inactive)
NCI-H226
  GI50: > 100 µM (inactive)
NCI-H460
  GI50: 60.1 µM (inactive)
NCI-H522
  GI50: 47.2 µM (inactive)
NCI/ADR-RES
  GI50: 15.2 µM (inactive)
OVCAR-3
  GI50: 37.7 µM (inactive)
OVCAR-4
  GI50: 65 µM (inactive)
OVCAR-5
  GI50: > 100 µM (inactive)
OVCAR-8
  GI50: 19.4 µM (inactive)
PC-3
  GI50: 32.7 µM (inactive)
RPMI-8226
  GI50: 33 µM (inactive)
SF-268
  GI50: 63.4 µM (inactive)
SF-539
  GI50: > 100 µM (inactive)
SK-MEL-28
  GI50: 84.3 µM (inactive)
SK-MEL-2
  GI50: > 100 µM (inactive)
SK-MEL-5
  GI50: 29.2 µM (inactive)
SK-OV-3
  GI50: 52.7 µM (inactive)
SN12C
  GI50: > 100 µM (inactive)
SNB-19
  GI50: 44.3 µM (inactive)
SNB-75
  GI50: 30.8 µM (inactive)
SR
  GI50: > 100 µM (inactive)
SW-620
  GI50: > 100 µM (inactive)
T47D
  GI50: 29.3 µM (inactive)
TK-10
  GI50: > 100 µM (inactive)
U-251
  GI50: > 100 µM (inactive)
UACC-257
  GI50: 53.8 µM (inactive)
UACC-62
  GI50: 35.8 µM (inactive)
UO-31
  GI50: 21.3 µM (inactive)

## Cc1ccc(S(=O)(=O)NN=C2CCCCCCCCCCC2)cc1
786-0
  GI50: > 100 µM (inactive)
A498
  GI50: > 100 µM (inactive)
A549
  GI50: > 100 µM (inactive)
ACHN
  GI50: > 100 µM (inactive)
BT-549
  GI50: > 100 µM (inactive)
CAKI-1
  GI50: > 100 µM (inactive)
CCRF-CEM
  GI50: > 100 µM (inactive)
COLO 205
  GI50: > 100 µM (inactive)
DU-145
  GI50: > 100 µM (inactive)
EKVX
  GI50: > 100 µM (inactive)
HCC 2998
  GI50: > 100 µM (inactive)
HCT-116
  GI50: > 100 µM (inactive)
HCT-15
  GI50: > 100 µM
HL-60
  GI50: > 100 µM (inactive)
HOP-62
  GI50: > 100 µM (inactive)
HOP-92
  GI50: > 100 µM (inactive)
HT-29
  GI50: > 100 µM (inactive)
Hs-578T
  GI50: 35.7 µM (inactive)
IGROV-1
  GI50: > 100 µM (inactive)
K562
  GI50: > 100 µM (inactive)
KM12
  GI50: > 100 µM (inactive)
LOX IMVI
  GI50: > 100 µM (inactive)
M14
  GI50: > 100 µM (inactive)
MCF7
  GI50: > 100 µM (inactive)
MDA-MB-231
  GI50: > 100 µM (inactive)
MDA-MB-435
  GI50: > 100 µM (inactive)
MDA-N
  GI50: > 100 µM (inactive)
MOLT-4
  GI50: > 100 µM (inactive)
Malme-3M
  GI50: > 100 µM (inactive)
NCI-H226
  GI50: 38.4 µM (inactive)
NCI-H23
  GI50: > 100 µM (inactive)
NCI-H460
  GI50: > 100 µM (inactive)
NCI-H522
  GI50: > 100 µM (inactive)
NCI/ADR-RES
  GI50: > 100 µM (inactive)
OVCAR-3
  GI50: > 100 µM (inactive)
OVCAR-4
  GI50: > 100 µM (inactive)
OVCAR-5
  GI50: > 100 µM (inactive)
OVCAR-8
  GI50: > 100 µM (inactive)
PC-3
  GI50: > 100 µM (inactive)
RPMI-8226
  GI50: > 100 µM (inactive)
RXF 393
  GI50: 58.1 µM (inactive)
SF-268
  GI50: > 100 µM (inactive)
SF-295
  GI50: > 100 µM (inactive)
SF-539
  GI50: > 100 µM (inactive)
SK-MEL-28
  GI50: > 100 µM (inactive)
SK-MEL-2
  GI50: > 100 µM (inactive)
SK-MEL-5
  GI50: > 100 µM (inactive)
SK-OV-3
  GI50: > 100 µM (inactive)
SN12C
  GI50: > 100 µM (inactive)
SNB-19
  GI50: > 100 µM (inactive)
SR
  GI50: > 100 µM (inactive)
SW-620
  GI50: > 100 µM (inactive)
T47D
  GI50: > 100 µM (inactive)
TK-10
  GI50: > 100 µM (inactive)
U-251
  GI50: > 100 µM (inactive)
UACC-257
  GI50: > 100 µM (inactive)
UACC-62
  GI50: > 100 µM (inactive)
UO-31
  GI50: > 100 µM (inactive)

## CO/C=C(/C(=O)OC)c1ccccc1[C@@H]1CC1c1cccc(F)c1 (stereo partly drawn)
786-0
  GI50: 41 µM (inactive)
A498
  GI50: 25.6 µM (inactive)
A549
  GI50: 20.6 µM (inactive)
ACHN
  GI50: 23.2 µM (inactive)
BT-549
  GI50: 25.4 µM (inactive)
CAKI-1
  GI50: 18.6 µM (inactive)
CCRF-CEM
  GI50: 26.5 µM (inactive)
COLO 205
  GI50: 15.7 µM (inactive)
DU-145
  GI50: 33 µM (inactive)
EKVX
  GI50: 30.5 µM (inactive)
HCC 2998
  GI50: 25 µM (inactive)
HCT-116
  GI50: 21.1 µM (inactive)
HCT-15
  GI50: 23.4 µM
HL-60
  GI50: 18.4 µM (inactive)
HOP-62
  GI50: 51.6 µM (inactive)
HOP-92
  GI50: 23.3 µM (inactive)
HT-29
  GI50: 30.4 µM (inactive)
Hs-578T
  GI50: 41.1 µM (inactive)
IGROV-1
  GI50: 18.2 µM (inactive)
K562
  GI50: 44.2 µM (inactive)
KM12
  GI50: 24.7 µM (inactive)
M14
  GI50: 19.8 µM (inactive)
MCF7
  GI50: 43.6 µM (inactive)
MDA-MB-231
  GI50: 29.9 µM (inactive)
MDA-MB-435
  GI50: 19.3 µM (inactive)
MDA-N
  GI50: 22.1 µM (inactive)
MOLT-4
  GI50: 29.2 µM (inactive)
Malme-3M
  GI50: 16 µM (inactive)
NCI-H226
  GI50: 25.6 µM (inactive)
NCI-H23
  GI50: 24.5 µM (inactive)
NCI-H460
  GI50: 26.6 µM (inactive)
NCI-H522
  GI50: 14.2 µM (inactive)
NCI/ADR-RES
  GI50: 30.5 µM (inactive)
OVCAR-3
  GI50: 27.6 µM (inactive)
OVCAR-4
  GI50: 20.2 µM (inactive)
OVCAR-5
  GI50: > 100 µM (inactive)
OVCAR-8
  GI50: 33.5 µM (inactive)
PC-3
  GI50: 29 µM (inactive)
RPMI-8226
  GI50: 19.5 µM (inactive)
RXF 393
  GI50: 58.3 µM (inactive)
SF-268
  GI50: 37.5 µM (inactive)
SF-295
  GI50: 67 µM (inactive)
SF-539
  GI50: 28.4 µM (inactive)
SK-MEL-28
  GI50: 39.4 µM (inactive)
SK-MEL-2
  GI50: 16.9 µM (inactive)
SK-MEL-5
  GI50: 12.3 µM (inactive)
SK-OV-3
  GI50: 25.5 µM (inactive)
SN12C
  GI50: 29.6 µM (inactive)
SNB-19
  GI50: 53.3 µM (inactive)
SR
  GI50: 21.2 µM (inactive)
T47D
  GI50: 20.4 µM (inactive)
TK-10
  GI50: 37.9 µM (inactive)
U-251
  GI50: 30.5 µM (inactive)
UACC-257
  GI50: 19.9 µM (inactive)
UACC-62
  GI50: 18.2 µM (inactive)
UO-31
  GI50: 31.8 µM (inactive)
